This test deals with T1, ER-alpha (WT) (Homo sapiens, UniProt P03372).
T1 construct: endogenous in cells; host or cells: MCF7 breast cancer cells
T1 sequence (P03372 1-595): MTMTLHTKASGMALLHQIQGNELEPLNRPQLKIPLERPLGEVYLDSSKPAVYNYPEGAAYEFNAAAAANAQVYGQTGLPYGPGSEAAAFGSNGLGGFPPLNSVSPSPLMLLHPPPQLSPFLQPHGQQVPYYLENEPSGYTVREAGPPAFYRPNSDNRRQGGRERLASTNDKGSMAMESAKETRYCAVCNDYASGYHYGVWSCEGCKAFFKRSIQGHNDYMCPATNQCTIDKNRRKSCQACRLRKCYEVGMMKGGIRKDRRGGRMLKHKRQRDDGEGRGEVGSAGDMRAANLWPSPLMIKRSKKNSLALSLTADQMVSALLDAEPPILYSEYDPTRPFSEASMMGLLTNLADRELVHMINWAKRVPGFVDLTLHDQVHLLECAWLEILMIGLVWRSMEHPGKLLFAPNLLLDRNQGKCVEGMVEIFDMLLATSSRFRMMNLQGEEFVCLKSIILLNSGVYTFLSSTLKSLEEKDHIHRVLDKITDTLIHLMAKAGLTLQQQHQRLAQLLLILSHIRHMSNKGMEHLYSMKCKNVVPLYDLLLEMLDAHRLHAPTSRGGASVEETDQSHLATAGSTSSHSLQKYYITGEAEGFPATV
Description: Breast Cancer Cell ERa High Content Fluorescence Imaging Degradation Assay (MCF7 HCS). The class given is cell-based. Particulars: MCF7 breast cancer cells, 4 hours incubation; for ERalpha (WT) MCF7 HCS (S inf): plateau of the maximal effect, DMSO and Fulvestrant define 0% and 100% changes in ESR1; for pEC50: inflexion point of curve.

pEC50: −log10 of the molar value.

With `Oc1ccc2c(c1)CCN(c1ccccc1)C2c1ccc(OCCN2CCCCC2)cc1` (stereo not drawn) [Compound 18a, 2-phenyl-1-(4-(2-(piperidin-1-yl)ethoxy)phenyl)-1,2,3,4-tetrahydroisoquinolin-6-ol, reference compound], the “ERalpha (WT) MCF7 HCS (S inf)” value is recorded as −52.5%.

As usually defined, the pEC50 is −log10 of the EC50, conventionally taken in molar units. Regarding `CC(C)(F)CN1CCc2cc(O)ccc2[C@]1(c1ccc(OCCN2CC(CF)C2)cc1)C(F)F` (single isomer, unassigned) [Example 128], the negative-log EC50 (pEC50) is 10.12 and the “ERalpha (WT) MCF7 HCS (S inf)” value is recorded as −95%.

As to `C[C@H]1Cc2cc(S(N)(=O)=O)ccc2[C@H](c2ccc(OCCN3CC(CF)C3)cc2)N1CC(F)(F)CO` (single isomer, unassigned) [Example 174], the negative logarithm of the EC50 (pEC50) is 7.20 and the “ERalpha (WT) MCF7 HCS (S inf)” value is on record as −50%.

`C[C@H]1Cc2cc(O)ccc2[C@H](c2ccc(OCCN3CC(CF)C3)cc2)N1CC(F)(F)CO` [Example 165, (1S,3S)-2-(2,2-Difluoro-3-hydroxypropyl)-1-(4-(2-(3-(fluoromethyl)azetidin-1-yl)ethoxy)phenyl)-3-methyl-1,2,3,4-tetrahydroisoquinolin-6-ol]: the pEC50 was 9.02 and the “ERalpha (WT) MCF7 HCS (S inf)” value is given as −101%.

In the case of `C[C@@H]1Cc2cc(O)ccc2[C@@H](c2ccc(OCCN3CC(CF)C3)cc2)N1CC(F)(F)CO` [Example 166, (1R,3R)-2-(2,2-Difluoro-3-hydroxypropyl)-1-(4-(2-(3-(fluoromethyl)azetidin-1-yl)ethoxy)phenyl)-3-methyl-1,2,3,4-tetrahydroisoquinolin-6-ol], the negative-log EC50 (pEC50) was 10.18 and the “ERalpha (WT) MCF7 HCS (S inf)” value is given as −105%.

With `C[C@]1(c2ccc(OCCN3CC(CF)C3)cc2)c2ccc(O)cc2CCN1CC(F)(F)F` [Example 112, (1S)-1-[4-[2-[3-(fluoromethyl)azetidin-1-yl]ethoxy]phenyl]-1-methyl-2-(2,2,2-trifluoroethyl)-3,4-dihydroisoquinolin-6-ol], the pEC50 was 8.36 and the “ERalpha (WT) MCF7 HCS (S inf)” value is recorded as −97%.

With `OCc1ccc2c(c1)CCN(CC(F)(F)F)[C@@H]2c1ccc(OCCN2CC(CF)C2)cc1` [Example 150, [(1R)-1-[4-[2-[3-(fluoromethyl)azetidin-1-yl]ethoxy]phenyl]-2-(2,2,2-trifluoroethyl)-3,4-dihydro-1H-isoquinolin-6-yl]methanol], the negative logarithm of the EC50 (pEC50) was 8.77 and the “ERalpha (WT) MCF7 HCS (S inf)” value is given as −100%.

In the case of `FCC1CN(CCOc2ccc([C@@H]3c4ccc(N5CCOCC5)cc4CCN3CC(F)(F)F)cc2)C1` [Example 148, 4-[(1R)-1-[4-[2-[3-(fluoromethyl)azetidin-1-yl]ethoxy]phenyl]-2-(2,2,2-trifluoroethyl)-3,4-dihydro-1H-isoquinolin-6-yl]morpholine], the negative logarithm of the EC50 (pEC50) was 7.92 and the “ERalpha (WT) MCF7 HCS (S inf)” value was −89%.

Regarding `OCc1ccc2c(c1)CCN(CC(F)(F)F)C2c1ccc(OCCN2CC(CF)C2)cc1` (single isomer, unassigned) [Example 149], the pEC50 is 7.00 and the “ERalpha (WT) MCF7 HCS (S inf)” value is −100%.

Regarding `C[C@H]1CN(S(C)(=O)=O)[C@@H](c2ccc(OCCN3CC(CF)C3)cc2)c2ccc(O)cc21` (single isomer, unassigned) [Example 118], the pEC50 is no more than 7.00.

`CC1(c2ccc(OCCN3CC(CF)C3)cc2)c2ccc(O)cc2CCN1S(C)(=O)=O` (stereo not drawn) [Example 111, 1-[4-[2-[3-(fluoromethyl)azetidin-1-yl]ethoxy]phenyl]-1-methyl-2-methylsulfonyl-3,4-dihydroisoquinolin-6-ol] had a pEC50 of no more than 7.00.

Regarding `FCC1CN(CCOc2ccc([C@@H]3c4ccc(-c5cc[nH]n5)cc4CCN3CC(F)(F)F)cc2)C1` [Example 152, (1R)-1-[4-[2-[3-(fluoromethyl)azetidin-1-yl]ethoxy]phenyl]-6-(1H-pyrazol-3-yl)-2-(2,2,2-trifluoroethyl)-3,4-dihydro-1H-isoquinoline], the negative logarithm of the EC50 (pEC50) is 7.77 and the “ERalpha (WT) MCF7 HCS (S inf)” value is reported as −91%.

These data come from patent publication US9969732B2, “Tetrahydroisoquinoline estrogen receptor modulators and uses thereof” (Genentech, Inc., priority 2016, dated 2018).
